“Also recorded” adds a separate entry of the source.
Key:
[1] = test system: GES1-ARID1A isogenic cell lines; assay: metabolomics by 1D NMR; format: cell-based; conditions: GES1-ARID1A WT and KO
Text: (B) Heat map of important metabolites up/down regulated in GES1-ARID1A WT and KO with and without volasertib treatment, as measured by 1D NMR.
In addition, ARID1A loss causes a dramatic alteration in transcriptome leading to up or down regulation of many important biological pathways (FIG. 6).

[2] = test system: GES1 ARID1A WT and KO cells; assay: mitochondrial depolarization measured using JC-1; format: cell-based; conditions: post treatment
Text: (§1) HSC70 was used as loading control.

cancer = conditions: Phase II clinical trials; cited from earlier work
[3] = test system: OVCAR3 ARID1A WT and KO cells; assay: Cell proliferation assays in OVCAR3 cells; format: cell-based; conditions: OVCAR3 ARID1A WT vs KO
Text: (§2) This synthetic lethal interaction was validated using Volasertib in multiple isogenic ARID1A WT and KO cell lines, using cell proliferation and colony formation assays (FIG. 3 A-E).

[4] = test system: GES1 ARID1A-WT and KO cells; assay: colony formation assay in GES1 ARID1A-WT and KO cells; format: cell-based; conditions: GES1 ARID1A-WT vs KO
Text: as §2

[5] = test system: GES1 ARID1A-WT and KO cells; assay: Annexin-V staining (apoptosis); format: cell-based
Text: as §1

[6] = test system: MCF10A ARID1A WT and KO cells; assay: Cell titre blue assay in MCF10A ARID1A WT and KO cells; format: cell-based; conditions: MCF10A ARID1A WT vs KO
Text: as §2

[7] = test system: OVCAR3-ARID1A KO xenografts; assay: mouse xenograft experiments with OVCAR3-ARID1A WT or KO cells; format: in vivo; conditions: Nude (SCID) mice, 15 mg/kg body weight once per week for 4 weeks
Description: Nude (SCID) mice received sub-cutaneous injections of OVCAR3-ARID1A WT or KO cells. Tumors were visible 10 days post injection, after which the animals were treated with Volasertib (15 mg/kg body weight) or vehicle once per week for 4 weeks. Body mass and tumor volumes were recorded twice per week. Mice were sacrificed at the end of 4 weeks of treatment and tumors were isolated and imaged, (B) Body mass measurements of mice measured twice per week, (C) Tumor volume measurements of mice measured twice per week, p<0.05, student's t-test, (D) Images of OVCAR3-ARID1A WT/KO tumors isolated from mice after sacrifice, (E) Dot plot of tumor area from D showing changes in tumor area in OVCAR3-ARID1A KO vs OVCAR3-ARID1A KO+volasertib treatment. Tumor area was calculated from the images in image J using the ruler to set scale and applying free hand tool to measure the tumor area.
as §2

[8] = test system: GES1 ARID1A WT and KO cells; assay: Cell titre blue assay in GES1 ARID1A WT and KO cells; format: cell-based; conditions: GES1 ARID1A WT vs KO
Text: as §2

GES1 cells = assay: Western blots of cleaved PARP in GES1 cells; format: cell-based; conditions: GES1 whole cell lysates, indicated time points
Text: as §1

OVCAR3 cells = assay: Western blots of cleaved PARP in OVCAR3 cells; format: cell-based; conditions: OVCAR3 whole cell lysates, indicated time points
Text: as §1

MCF10A ARID1A KO cells = assay: cell survival screen with clinically applicable kinase inhibitors; format: cell-based; conditions: MCF10A system, ARID1A KO vs WT, ratios of Z-scores
Text: FIG. 2: Generation of ARID1A KO cells in (A) GES1, (B) MCF10A, (C) OVCAR3, (D) Ratios of Z-scores, showing hits from preliminary FDA approved kinase inhibitor screen.
ARID1A Knockout (KO) cell lines were generated using CRISPR-Cas9 gene editing in multiple cellular contexts where ARID1A is lost-Gastric (GES1), Breast (MCF10A), and Ovarian (OVCAR3) (FIG. 2 A-C).

Row | SMILES | changes in metabolic intermediates / metabolomics [1] | mitochondrial depolarization (JC-1) [2] | clinical result as monotherapy (cancer) | synthetic lethality, cell proliferation assays [3] | synthetic lethality, colony formation assay [4] | apoptosis and cell killing ([5]; ARID1A KO cells) | apoptosis, Annexin-V positive cells ([5]; GES1 ARID1A-KO cells, post treatment) | synthetic lethality, cell titre blue assay [6] | anti-tumor activity on xenografts (tumor volume, tumor area) [7] | anti-tumor activity on xenografts (tumor volume, tumor area) ([7]; 15 mg/kg) | synthetic lethality, cell titre blue assay [8] | cleaved PARP accumulation (GES1 cells) | cleaved PARP accumulation (OVCAR3 cells) | sensitivity of cells with loss of ARID1A in cell survival screen (MCF10A ARID1A KO cells)
1 | CC[C@@H]1C(=O)N(C)c2cnc(Nc3ccc(C(=O)N[C@H]4CC[C@H](N5CCN(CC6CC6)CC5)CC4)cc3OC)nc2N1C(C)C [Volasertib] | profound changes in the metabolomics; also recorded: exacerbated upon volasertib treatment | markedly increases mitochondrial depolarization; also recorded: increased depolarization post Volasertib treatment in a time dependent manner | encouraging results as monotherapy | synthetic lethality between ARID1A loss and Volasertib | synthetic lethality between ARID1A loss and Volasertib | selective cell killing in ARID1A KO cells | further increase post Volasertib treatment | synthetic lethality between ARID1A loss and Volasertib | Anti-tumor activity | synthetically lethal relationship was also demonstrated | synthetic lethality between ARID1A loss and Volasertib | increased accumulation of cleaved PARP | increased accumulation of cleaved PARP | 
2 | COc1cc(C(=O)NC2CCN(C)CC2)c(F)cc1Nc1ncc2c(n1)N(C1CCCC1)CC(F)(F)C(=O)N2C [TAK960] |  |  |  |  |  |  |  |  |  |  |  |  |  | preferentially sensitivity
